Test system: B16F10 cells
Assay: Intracranial injection of curcumin on brain tumor cells (B16F10)
Assay type: in vivo, mice
Conditions: 5 μl of 3 mM curcumin via cannula every other day
Description: Each mouse was fitted with a stainless steel guide cannula (Plastic Ones, System C313G, Roanoke, Va., USA) to administer curcumin directly to the brain. Cannulas were implanted into the right frontal cortex at the same coordinates as used earlier for intracerebral injection. The guide cannula was fixed to the skull with dental cement. A removable stylet plugged the guide cannula except during the time of drug injection. B16F10 cells (103) were delivered into mice in two sets on the first day. Starting from the third day, 5 μl of curcumin (3 mM) in PBS containing 15% DMSO were infused through the cannula of one set of mice (three), whereas the other set of mice (three) received 5 μl of PBS containing 15% DMSO (carrier). Considering that the brain volume of an adult mouse is about 400 μl, dispersion of this solution would give a final concentration of 37.5 μM curcumin and 0.187% DMSO in the brain. This infusion was started on the third day and then performed every other day, until day 19. The brains of the treated mice were removed and soaked (fixed) in 4% paraformaldehyde.

In the case of `COc1cc(/C=C/C(=O)CC(=O)/C=C/c2ccc(O)c(OC)c2)ccc1O` [curcumin], the “mice with a detectable brain tumor” value (day 3 to day 19 (FIG. 11)) is reported as “None” and the behavior (day 3 to day 19, carrier mice collapsed day 15-25) is reported as “normal behavior”.

Source: patent publication US20100197584A1, “USE OF CURCUMIN TO BLOCK BRAIN TUMOR FORMATION IN MICE” (Research Foundations of the City University of- New York, priority 2007, published 2010)
